In ChEMBL document CHEMBL4321852, “Structure-Based and Property-Driven Optimization of N-Aryl Imidazoles toward Potent and Selective Oral RORγt Inhibitors” (J Med Chem, 2019):
Activity calls are given as the source filed them. The calls are words filed in the database; no cut-off is given here.

How the values were obtained:
[1] = Inverse agonist activity at RORgammat in rat whole blood assessed as reduction in Con A/IL-23-stimulated IL-17 secretion after 72 hrs by ELISA
Glucocorticoid receptor = biological target: T1, Glucocorticoid receptor (Homo sapiens, UniProt P04150); assay: Inhibition of Gal4-tagged GR LBD (unknown origin) by cell based luciferase reporter gene assay
T1 sequence (P04150 whole entry): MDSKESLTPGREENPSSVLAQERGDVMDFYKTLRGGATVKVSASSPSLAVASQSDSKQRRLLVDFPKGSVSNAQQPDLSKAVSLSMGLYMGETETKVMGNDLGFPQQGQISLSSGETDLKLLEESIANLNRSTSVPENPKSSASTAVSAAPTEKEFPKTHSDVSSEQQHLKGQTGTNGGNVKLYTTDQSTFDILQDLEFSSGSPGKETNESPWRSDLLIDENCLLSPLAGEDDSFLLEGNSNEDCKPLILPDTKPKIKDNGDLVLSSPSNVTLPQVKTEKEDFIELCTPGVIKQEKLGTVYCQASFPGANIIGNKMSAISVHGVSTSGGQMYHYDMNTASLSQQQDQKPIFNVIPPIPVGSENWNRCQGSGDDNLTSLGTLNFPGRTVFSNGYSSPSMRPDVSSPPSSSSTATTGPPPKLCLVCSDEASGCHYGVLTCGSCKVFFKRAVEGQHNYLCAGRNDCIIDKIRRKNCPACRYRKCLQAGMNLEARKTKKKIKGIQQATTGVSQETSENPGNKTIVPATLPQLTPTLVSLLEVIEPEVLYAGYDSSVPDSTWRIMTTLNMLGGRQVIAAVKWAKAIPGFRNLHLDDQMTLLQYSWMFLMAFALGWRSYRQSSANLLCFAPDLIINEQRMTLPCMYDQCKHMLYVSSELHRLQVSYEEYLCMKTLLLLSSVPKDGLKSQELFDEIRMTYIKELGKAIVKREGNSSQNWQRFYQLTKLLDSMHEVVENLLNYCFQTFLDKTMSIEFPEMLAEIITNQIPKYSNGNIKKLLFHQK

Estrogen receptor = biological target: T2, Estrogen receptor (Homo sapiens, UniProt P03372); assay: Inhibition of Gal4-tagged ERalpha LBD (unknown origin) by cell based luciferase reporter gene assay
T2 sequence (P03372 whole entry): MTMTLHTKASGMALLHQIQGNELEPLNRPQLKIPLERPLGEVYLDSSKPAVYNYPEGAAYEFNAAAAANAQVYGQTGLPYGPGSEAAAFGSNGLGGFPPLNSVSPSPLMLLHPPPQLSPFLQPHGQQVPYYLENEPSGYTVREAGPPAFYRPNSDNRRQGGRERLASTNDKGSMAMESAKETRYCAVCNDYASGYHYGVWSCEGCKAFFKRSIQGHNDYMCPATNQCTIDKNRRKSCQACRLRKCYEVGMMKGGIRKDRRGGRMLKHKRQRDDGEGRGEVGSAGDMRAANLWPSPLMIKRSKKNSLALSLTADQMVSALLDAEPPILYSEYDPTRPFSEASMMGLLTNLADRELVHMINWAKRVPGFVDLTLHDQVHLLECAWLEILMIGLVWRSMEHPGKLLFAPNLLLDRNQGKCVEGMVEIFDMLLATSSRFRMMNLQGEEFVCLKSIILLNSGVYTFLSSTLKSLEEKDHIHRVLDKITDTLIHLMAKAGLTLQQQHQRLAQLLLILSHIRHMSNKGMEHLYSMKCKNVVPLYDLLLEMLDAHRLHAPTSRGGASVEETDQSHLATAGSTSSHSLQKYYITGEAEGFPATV

[2] = biological target: T3, Nuclear receptor ROR-beta (Homo sapiens, UniProt Q92753); assay: Inhibition of Gal4-tagged RORbeta LBD (unknown origin) by cell based luciferase reporter gene assay
T3 sequence (Q92753 whole entry): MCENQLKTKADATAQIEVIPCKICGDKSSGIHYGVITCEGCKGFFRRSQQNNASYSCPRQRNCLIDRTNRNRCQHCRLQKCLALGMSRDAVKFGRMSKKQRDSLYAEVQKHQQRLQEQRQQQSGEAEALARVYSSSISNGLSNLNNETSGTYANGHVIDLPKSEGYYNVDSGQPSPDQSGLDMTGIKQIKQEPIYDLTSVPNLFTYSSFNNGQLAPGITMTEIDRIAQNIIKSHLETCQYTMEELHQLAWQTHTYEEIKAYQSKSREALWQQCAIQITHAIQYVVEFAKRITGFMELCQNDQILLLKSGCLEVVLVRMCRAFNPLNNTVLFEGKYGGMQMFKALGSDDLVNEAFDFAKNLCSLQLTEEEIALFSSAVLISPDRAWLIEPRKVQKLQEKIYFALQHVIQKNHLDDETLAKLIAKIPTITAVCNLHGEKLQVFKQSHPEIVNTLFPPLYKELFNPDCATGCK

[3] = biological target: T4, Nuclear receptor ROR-gamma (Homo sapiens, UniProt P51449); assay: Inhibition of Gal4-tagged RORgammat LBD (unknown origin) by cell based luciferase reporter gene assay
T4 sequence (P51449 whole entry): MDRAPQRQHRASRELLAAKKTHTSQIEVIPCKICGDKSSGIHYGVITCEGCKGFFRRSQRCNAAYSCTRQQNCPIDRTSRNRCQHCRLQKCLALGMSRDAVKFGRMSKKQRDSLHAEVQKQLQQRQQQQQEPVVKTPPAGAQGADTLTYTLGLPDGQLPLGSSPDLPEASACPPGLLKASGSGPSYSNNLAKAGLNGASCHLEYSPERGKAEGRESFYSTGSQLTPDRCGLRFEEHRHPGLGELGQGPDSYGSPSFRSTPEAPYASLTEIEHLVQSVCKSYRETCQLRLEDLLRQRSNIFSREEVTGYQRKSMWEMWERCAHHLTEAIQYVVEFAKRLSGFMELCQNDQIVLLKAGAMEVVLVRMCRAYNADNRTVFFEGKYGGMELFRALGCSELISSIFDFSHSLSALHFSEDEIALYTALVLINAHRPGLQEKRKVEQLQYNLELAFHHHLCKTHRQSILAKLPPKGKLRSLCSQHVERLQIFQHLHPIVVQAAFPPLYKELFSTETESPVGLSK

[4] = Tmax in DA rat at 5 mg/kg, po; assay type: ADME, organism-based; settings: in vivo
Rattus norvegicus [5] = assay: Anti-inflammatory activity in mBSA/CFA-immunized Lewis rat delayed-type hypersensitivity model assessed as reduction in ear swelling at 1 mg/kg, po via gavage administered twice daily for 2 days treated prior to mBSA/CFA challenge measured after up to 50 hrs; assay type: functional, organism-based
Rattus norvegicus [6] = assay: Anti-inflammatory activity in mBSA/CFA-immunized Lewis rat delayed-type hypersensitivity model assessed as reduction in ear swelling at 1 to 15 mg/kg, po via gavage administered twice daily for 2 days treated prior to mBSA/CFA challenge measured after up to 50 hrs; assay type: functional, organism-based
[7] = Inhibition of RORgammat in rat CD4+ T-cells polarized with Th17 cytokine mix assessed as inhibition of IL-17 secretion
[8] = Distribution coefficient of the compound, high-throughput logD using octanol-buffer at pH 7.4 by LC-MS/MS analysis shake flask method; assay type: physicochemical
[9] = Terminal half life in Sprague-Dawley rat at 1 mg/kg, iv; assay type: ADME, organism-based; settings: in vivo, read-out: beta t1/2 (converted)

## Cc1c(C2(C(F)(F)F)CC2)nc(C2CC2)n1-c1c(Cl)ccc(N2CC3(CC(C(=O)O)C3)C2)c1Cl (single isomer, unassigned; atropisomer)
[1]
  IC50: 702 nM
Glucocorticoid receptor
  IC50: > 10000 nM
Estrogen receptor
  IC50: > 10000 nM
[2]
  IC50: > 10000 nM
[3]
  IC50: 151 nM
[4]
  Tmax: 1 h
Rattus norvegicus [5]
  Activity: inactive
Rattus norvegicus [6]
  Activity: Dose-dependent effect
[7]
  IC50: 387 nM
[8]
  logD: 2
[9]
  half-life: 5.3 h
